Measured values from ChEMBL document CHEMBL3137667, “[Drug-induced liver injury; fourteenth updated edition of the bibliographic database of liver injuries and related drugs]” (Gastroenterol Clin Biol, 2004).

Tests used:
[1] = human
[2] = human; remark: listed apart in the source
[3] = human; remark: listed apart in the source
[4] = human, serum
[5] = human, serum, 4383 h
[6] = Times to onset, minimal and maximal, observed in the indexed observations. [column 'DELAI' in source]; details: human
[7] = human; remark: listed apart in the source
[8] = Highest frequency of acute liver toxicity observed during clinical trials, expressed as a percentage. [column '% AIGUE' in source]; details: human
[9] = human; remark: listed apart in the source
[10] = human, serum; remark: listed apart in the source
[11] = human; remark: listed apart in the source
[12] = human; remark: listed apart in the source
[13] = human; remark: listed apart in the source
[14] = Highest frequency of moderate liver toxicity observed during clinical trials, expressed as a percentage. [column '% BIOL' in source]; details: human
[15] = human; remark: listed apart in the source
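For Hepatotoxicity (association with vascular disease) in this document: count of indexed literature references reporting vascular liver injury in humans, e.g. peliosis hepatitis, hepatic veno-occlusive disease or Budd-Chiari syndrome.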
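For Hepatotoxicity (benign tumour) in this document: value is a count of indexed literature references citing a benign tumour confirmed by histopathology.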
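For Hepatotoxicity (choleostasis) in this document: human cholestatic liver injury, shown by histopathology or by peak ALT or AST elevation over alkaline phosphatase ratio below 2, value counts indexed literature reports.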
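For Hepatotoxicity (chronic liver disease) in this document: chronic liver injury confirmed by histopathology or persistently raised serum aminotransferase activity beyond 6 months, value given as the count of indexed literature references.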
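For Hepatotoxicity (cirrhosis) in this document: value is a count of indexed literature references reporting cirrhosis confirmed by histopathology.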
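For Hepatotoxicity (cytolytic) in this document: human cytolytic liver injury, shown by histopathology or by a ratio above 5 of peak ALT or AST elevation to alkaline phosphatase elevation, value counts indexed references.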
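For Hepatotoxicity (granulomatous hepatitis) in this document: value is a count of indexed literature references reporting granulomatous liver disease confirmed by histopathology.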
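For Hepatotoxicity (malignant tumour) in this document: malignant tumour confirmed by histopathology, value gives the count of indexed literature references reporting it.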
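For Hepatotoxicity (severe hepatitis) in this document: human clinical data: severe hepatitis, meaning potentially life-threatening liver failure or clinically observed cases, the value counts how many indexed literature references report it.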
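For Hepatotoxicity (steatosis) in this document: steatosis confirmed by histopathology, value is the count of indexed references.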

With `CS(=O)(=O)c1ccc2c(c1)N(CCCN1CCC(C(N)=O)CC1)c1ccccc1S2` [METOPIMAZINE] the “Hepatotoxicity (malignant tumour)” value [1] was 0, the “Hepatotoxicity (choleostasis)” value [2] was 1 and the “Hepatotoxicity (association with vascular disease)” value [3] was 0. For the same compound, the “Hepatotoxicity (acute)” value [4] was 1, the “Hepatotoxicity (chronic liver disease)” value [5] was 0 and the “Hepatotoxicity (time to onset)” value [6] was 1 month. For the same compound, the “Hepatotoxicity (benign tumour)” value [7] was 0, the “Hepatotoxicity (acute)” value [8] was 0% and the “Hepatotoxicity (granulomatous hepatitis)” value [9] was 0. For the same compound, the “Hepatotoxicity (moderate)” value [10] was 0, the “Hepatotoxicity (cirrhosis)” value [11] was 0 and the “Hepatotoxicity (cytolytic)” value [12] was 1. The “Hepatotoxicity (steatosis)” value [13] was 0, the “Hepatotoxicity (moderate)” value [14] was 0% and the “Hepatotoxicity (severe hepatitis)” value [15] was 0.

For `CC1(C)S[C@@H]2[C@H](NC(=O)[C@H](NC(=O)N3CCN(S(C)(=O)=O)C3=O)c3ccccc3)C(=O)N2[C@H]1C(=O)O` [MEZLOCILLIN], the “Hepatotoxicity (malignant tumour)” value [1] was 0, the “Hepatotoxicity (choleostasis)” value ([2]; Liver) was 1 and the “Hepatotoxicity (association with vascular disease)” value [3] was 0. For the same compound, the “Hepatotoxicity (acute)” value [4] was 1, the “Hepatotoxicity (chronic liver disease)” value [5] was 0 and the “Hepatotoxicity (time to onset)” value [6] was 2 weeks - 3 weeks. For the same compound, the “Hepatotoxicity (benign tumour)” value [7] was 0, the “Hepatotoxicity (acute)” value ([8]; Liver) was 0% and the “Hepatotoxicity (granulomatous hepatitis)” value ([9]; Liver) was 0. For the same compound, the “Hepatotoxicity (moderate)” value [10] was 6, the “Hepatotoxicity (cirrhosis)” value [11] was 0 and the “Hepatotoxicity (cytolytic)” value ([12]; Liver) was 0. For the same compound, the “Hepatotoxicity (steatosis)” value [13] was 0, the “Hepatotoxicity (moderate)” value ([14]; Liver) was 25% and the “Hepatotoxicity (severe hepatitis)” value ([15]; Liver) was 0.

In the case of `CCC(=O)O[C@@H]1CC(=O)O[C@H](C)C/C=C/C=C/[C@H](O)[C@H](C)C[C@H](CC=O)[C@H](O[C@@H]2O[C@H](C)[C@@H](O[C@H]3C[C@@](C)(O)[C@@H](OC(=O)CC)[C@H](C)O3)[C@H](N(C)C)[C@H]2O)[C@H]1OC` [MIDECAMYCIN], the “Hepatotoxicity (malignant tumour)” value [1] is reported as 0, the “Hepatotoxicity (choleostasis)” value [2] is reported as 0 and the “Hepatotoxicity (association with vascular disease)” value [3] is reported as 0. For the same compound, the “Hepatotoxicity (acute)” value [4] was 1, the “Hepatotoxicity (chronic liver disease)” value [5] was 0 and the “Hepatotoxicity (time to onset)” value [6] was 1 days. For the same compound, the “Hepatotoxicity (benign tumour)” value [7] was 0, the “Hepatotoxicity (acute)” value [8] was 0% and the “Hepatotoxicity (granulomatous hepatitis)” value [9] was 0. For the same compound, the “Hepatotoxicity (moderate)” value [10] was 3, the “Hepatotoxicity (cirrhosis)” value [11] was 0 and the “Hepatotoxicity (cytolytic)” value [12] was 1. For the same compound, the “Hepatotoxicity (steatosis)” value [13] was 0, the “Hepatotoxicity (moderate)” value [14] was 2.3% and the “Hepatotoxicity (severe hepatitis)” value [15] was 1.

For `CC#C[C@]1(O)CC[C@H]2[C@@H]3CCC4=CC(=O)CCC4=C3[C@@H](c3ccc(N(C)C)cc3)C[C@@]21C` [MIFEPRISTONE], the “Hepatotoxicity (malignant tumour)” value [1] was 0, the “Hepatotoxicity (choleostasis)” value [2] was 0 and the “Hepatotoxicity (association with vascular disease)” value [3] was 0. The “Hepatotoxicity (acute)” value [4] was 1, the “Hepatotoxicity (chronic liver disease)” value [5] was 0 and the “Hepatotoxicity (time to onset)” value [6] was 3 months - 5 months. For the same compound, the “Hepatotoxicity (benign tumour)” value [7] was 0, the “Hepatotoxicity (acute)” value [8] was 0% and the “Hepatotoxicity (granulomatous hepatitis)” value [9] was 0. The “Hepatotoxicity (moderate)” value [10] was 2, the “Hepatotoxicity (cirrhosis)” value [11] was 0 and the “Hepatotoxicity (cytolytic)” value [12] was 1. For the same compound, the “Hepatotoxicity (steatosis)” value [13] was 0, the “Hepatotoxicity (moderate)” value [14] was 14.3% and the “Hepatotoxicity (severe hepatitis)” value [15] was 0.

In the case of `CCCCCNCC(N)=O` [MILACEMIDE], the “Hepatotoxicity (malignant tumour)” value [1] is reported as 0, the “Hepatotoxicity (choleostasis)” value [2] is reported as 1 and the “Hepatotoxicity (association with vascular disease)” value [3] is reported as 0. The “Hepatotoxicity (acute)” value [4] was 1, the “Hepatotoxicity (chronic liver disease)” value [5] was 0 and the “Hepatotoxicity (time to onset)” value [6] was 3 weeks - 4 weeks. For the same compound, the “Hepatotoxicity (benign tumour)” value [7] was 0, the “Hepatotoxicity (acute)” value [8] was 0% and the “Hepatotoxicity (granulomatous hepatitis)” value [9] was 0. For the same compound, the “Hepatotoxicity (moderate)” value [10] was 3, the “Hepatotoxicity (cirrhosis)” value [11] was 0 and the “Hepatotoxicity (cytolytic)” value [12] was 1. For the same compound, the “Hepatotoxicity (steatosis)” value [13] was 0, the “Hepatotoxicity (moderate)” value [14] was 70% and the “Hepatotoxicity (severe hepatitis)” value [15] was 0.

For `CCCCCCCCCCCCCCCCOP(=O)([O-])OCC[N+](C)(C)C` [MILTEFOSINE], the “Hepatotoxicity (malignant tumour)” value [1] was 0, the “Hepatotoxicity (choleostasis)” value [2] was 0 and the “Hepatotoxicity (association with vascular disease)” value [3] was 0. The “Hepatotoxicity (acute)” value [4] was 3, the “Hepatotoxicity (chronic liver disease)” value [5] was 0 and the “Hepatotoxicity (time to onset)” value [6] was 2 weeks. The “Hepatotoxicity (benign tumour)” value [7] was 0, the “Hepatotoxicity (acute)” value [8] was 2.2% and the “Hepatotoxicity (granulomatous hepatitis)” value [9] was 0. For the same compound, the “Hepatotoxicity (moderate)” value [10] was 5, the “Hepatotoxicity (cirrhosis)” value [11] was 0 and the “Hepatotoxicity (cytolytic)” value [12] was 3. The “Hepatotoxicity (steatosis)” value [13] was 0, the “Hepatotoxicity (moderate)” value [14] was 55% and the “Hepatotoxicity (severe hepatitis)” value [15] was 0.

With `CN1CCN2c3ncccc3Cc3ccccc3C2C1` (stereo not given) [MIRTAZAPINE] the “Hepatotoxicity (malignant tumour)” value [1] was 0, the “Hepatotoxicity (choleostasis)” value [2] was 0 and the “Hepatotoxicity (association with vascular disease)” value [3] was 0. For the same compound, the “Hepatotoxicity (acute)” value [4] was 1, the “Hepatotoxicity (chronic liver disease)” value [5] was 0 and the “Hepatotoxicity (time to onset)” value [6] was 1 year - 3 years. For the same compound, the “Hepatotoxicity (benign tumour)” value [7] was 0, the “Hepatotoxicity (acute)” value [8] was 0% and the “Hepatotoxicity (granulomatous hepatitis)” value [9] was 0. For the same compound, the “Hepatotoxicity (moderate)” value [10] was 2, the “Hepatotoxicity (cirrhosis)” value [11] was 0 and the “Hepatotoxicity (cytolytic)” value [12] was 1. The “Hepatotoxicity (steatosis)” value [13] was 1, the “Hepatotoxicity (moderate)” value [14] was 1% and the “Hepatotoxicity (severe hepatitis)” value [15] was 1.

For `CN(c1nccc(=O)[nH]1)C1CCN(c2nc3ccccc3n2Cc2ccc(F)cc2)CC1` [MIZOLASTINE], the “Hepatotoxicity (malignant tumour)” value [1] was 0, the “Hepatotoxicity (choleostasis)” value [2] was 0 and the “Hepatotoxicity (association with vascular disease)” value [3] was 0. For the same compound, the “Hepatotoxicity (acute)” value [4] was 2, the “Hepatotoxicity (chronic liver disease)” value [5] was 0 and the “Hepatotoxicity (time to onset)” value [6] was 2 months. The “Hepatotoxicity (benign tumour)” value [7] was 0, the “Hepatotoxicity (acute)” value [8] was 0% and the “Hepatotoxicity (granulomatous hepatitis)” value [9] was 0. The “Hepatotoxicity (moderate)” value [10] was 0, the “Hepatotoxicity (cirrhosis)” value [11] was 0 and the “Hepatotoxicity (cytolytic)” value [12] was 2. For the same compound, the “Hepatotoxicity (steatosis)” value [13] was 0, the “Hepatotoxicity (moderate)” value [14] was 0% and the “Hepatotoxicity (severe hepatitis)” value [15] was 0.

With `O=C(NCCN1CCOCC1)c1ccc(Cl)cc1` [MOCLOBEMIDE] the “Hepatotoxicity (malignant tumour)” value [1] was 0, the “Hepatotoxicity (choleostasis)” value [2] was 1 and the “Hepatotoxicity (association with vascular disease)” value [3] was 0. For the same compound, the “Hepatotoxicity (acute)” value [4] was 1, the “Hepatotoxicity (chronic liver disease)” value [5] was 0 and the “Hepatotoxicity (time to onset)” value [6] was 1 week - 9 days. For the same compound, the “Hepatotoxicity (benign tumour)” value [7] was 0, the “Hepatotoxicity (acute)” value [8] was 0% and the “Hepatotoxicity (granulomatous hepatitis)” value [9] was 0. The “Hepatotoxicity (moderate)” value [10] was 1, the “Hepatotoxicity (cirrhosis)” value [11] was 0 and the “Hepatotoxicity (cytolytic)” value [12] was 0. The “Hepatotoxicity (steatosis)” value [13] was 0, the “Hepatotoxicity (moderate)” value [14] was 0% and the “Hepatotoxicity (severe hepatitis)” value [15] was 1.

In the case of `CCCCC1C(=O)NN(c2ccccc2)C1=O` (stereo not given) [MOFEBUTAZONE], the “Hepatotoxicity (malignant tumour)” value [1] is reported as 0, the “Hepatotoxicity (choleostasis)” value [2] is reported as 0 and the “Hepatotoxicity (association with vascular disease)” value [3] is reported as 0. The “Hepatotoxicity (acute)” value [4] was 1, the “Hepatotoxicity (chronic liver disease)” value [5] was 0 and the “Hepatotoxicity (time to onset)” value [6] was 2 years. For the same compound, the “Hepatotoxicity (benign tumour)” value [7] was 0, the “Hepatotoxicity (acute)” value [8] was 0% and the “Hepatotoxicity (granulomatous hepatitis)” value [9] was 0. The “Hepatotoxicity (moderate)” value [10] was 0, the “Hepatotoxicity (cirrhosis)” value [11] was 1 and the “Hepatotoxicity (cytolytic)” value [12] was 1. For the same compound, the “Hepatotoxicity (steatosis)” value [13] was 0, the “Hepatotoxicity (moderate)” value [14] was 0% and the “Hepatotoxicity (severe hepatitis)” value [15] was 0.

For `CCOC(=O)Nc1ccc2c(c1)N(C(=O)CCN1CCOCC1)c1ccccc1S2` [MORICIZINE], the “Hepatotoxicity (malignant tumour)” value [1] was 0, the “Hepatotoxicity (choleostasis)” value [2] was 0 and the “Hepatotoxicity (association with vascular disease)” value [3] was 0. The “Hepatotoxicity (acute)” value [4] was 0, the “Hepatotoxicity (chronic liver disease)” value [5] was 0 and the “Hepatotoxicity (time to onset)” value [6] was 6 days. For the same compound, the “Hepatotoxicity (benign tumour)” value [7] was 0, the “Hepatotoxicity (acute)” value [8] was 0% and the “Hepatotoxicity (granulomatous hepatitis)” value [9] was 0. The “Hepatotoxicity (moderate)” value [10] was 4, the “Hepatotoxicity (cirrhosis)” value [11] was 0 and the “Hepatotoxicity (cytolytic)” value [12] was 0. The “Hepatotoxicity (steatosis)” value [13] was 0, the “Hepatotoxicity (moderate)” value [14] was 1.2% and the “Hepatotoxicity (severe hepatitis)” value [15] was 0.
